The text below walks through data of patent US20200138827A1, “SMALL MOLECULE MODULATORS OF HUMAN STING” (Curadev Pharma Limited, priority 2017, published 2020).

In this assay the target is T1, WT/R232 STING protein (Homo sapiens, UniProt Q86WV6, H232R).
T1 construct: host or cells: HEK293T
In words: Luciferase reporter assay in HEK293T-hSTING-Luciferase cells, WT/R232. In kind it is cell-based. The conditions noted are these: 20 hr stimulation, read-out: R232 Activity (EC50 range). Put shortly: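 […], read by luminescence from supernatant after 20 h compound stimulation. Cells: clonally selected HEK293T (5×10^5/well) stably carrying WT/R232 human STING and a luciferase reporter under five tandem ISREs fused to an ISG54 minimal promoter.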
On the technique in general: Reporter assays use an easily measured gene product as a stand-in for the process of interest.

Each structure is given as a SMILES string. Bounds are passed on as bounds.

T1 sequence (Q86WV6 whole entry H232R): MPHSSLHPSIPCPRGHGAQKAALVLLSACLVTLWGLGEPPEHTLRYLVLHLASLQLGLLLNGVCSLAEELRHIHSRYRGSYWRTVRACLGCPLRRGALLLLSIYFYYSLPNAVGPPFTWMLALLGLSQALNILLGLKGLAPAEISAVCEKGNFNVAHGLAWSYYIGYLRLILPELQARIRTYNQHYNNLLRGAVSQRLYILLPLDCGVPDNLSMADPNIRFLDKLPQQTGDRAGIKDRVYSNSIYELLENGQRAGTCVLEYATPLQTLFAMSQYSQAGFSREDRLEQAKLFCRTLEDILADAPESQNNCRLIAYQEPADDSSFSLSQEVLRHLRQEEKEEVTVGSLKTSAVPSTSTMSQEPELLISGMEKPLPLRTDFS

As to `COc1cc(F)c(CN2C(=O)CSc3ccc(C(=O)NCc4c(F)cc(F)cc4F)cc32)c(F)c1` [Example 114, 4-(2,6-difluoro-4-methoxybenzyl)-3-oxo-N-(2,4,6-trifluorobenzyl)-3,4-dihydro-2H-benzo[b][1,4] thiazine-6-carboxamide], the EC50 (commonly the concentration at which the effect is half-maximal) was less than 1 µM.

Regarding `O=C(NCc1c(F)cc(F)cc1F)c1ccc2c(c1)N(Cc1c(F)cc(O)cc1F)C(=O)CS2` [Example 115, 4-(2,6-difluoro-4-hydroxybenzyl)-3-oxo-N-(2,4,6-trifluorobenzyl)-3,4-dihydro-2H-benzo[b][1,4] thiazine-6-carboxamide], the EC50 is less than 1 µM.

With `COc1ccccc1CNC(=O)c1ccc2c(c1)N(Cc1ccccc1)C(=O)CS2` [Example 116, 4-benzyl-N-(2-methoxybenzyl)-3-oxo-3,4-dihydro-2H-benzo[b-1,4]thiazine-6-carboxamide], the EC50 was greater than 10 µM.

Take `O=C(NCc1ccccc1Cl)c1ccc2c(c1)N(Cc1ccccc1)C(=O)CS2` [Example 117, 4-benzyl-N-(2-chlorobenzyl)-3-oxo-3,4-dihydro-2H-benzo[b-1,4]thiazine-6-carboxamide]: the EC50 was greater than 10 µM.

Consider `O=C(NCc1ccco1)c1ccc2c(c1)N(Cc1ccc(Cl)cc1)C(=O)CS2` [Example 119, 4-(4-chlorobenzyl)-N-(furan-2-ylmethyl)-3-oxo-3,4-dihydro-2H-benzo[b-1,4]thiazine-6-carboxamide], for which the EC50 was 1 to 10 µM.

As to `Cn1cc(CNC(=O)c2ccc3c(c2)N(Cc2ccccc2)C(=O)CS3)cn1` [Example 121, 4-benzyl-N-((1-methyl-1H-pyrazol-4-yl)methyl)-3-oxo-3,4-dihydro-2H-benzo[b][1,4] thiazine-6-carboxamide], the EC50 is greater than 10 µM.

As to `O=C(NCc1ccc(F)cc1)c1ccc2c(c1)N(Cc1ccccc1Cl)C(=O)CS2` [Example 122, 4-(2-chlorobenzyl)-N-(4-fluorobenzyl)-3-oxo-3,4-dihydro-2H-benzo[b-1,4]thiazine-6-carboxamide], the EC50 lay within 1 to 10 µM.

For `O=C(NCc1ccccc1Cl)c1ccc2c(c1)N(Cc1ccccc1Cl)C(=O)CS2` [Example 123, N,4-bis(2-chlorobenzyl)-3-oxo-3,4-dihydro-2H-benzo[b-1,4]thiazine-6-carboxamide], the EC50 is greater than 10 µM.

With `O=C(NCc1ccccc1Cl)c1ccc2c(c1)N(Cc1cccc(Cl)c1)C(=O)CS2` [Example 124, N-(2-chlorobenzyl)-4-(3-chlorobenzyl)-3-oxo-3,4-dihydro-2H-benzo[b-1,4]thiazine-6-carboxamide], the EC50 was greater than 10 µM.

Consider `CC(NC(=O)c1ccc2c(c1)N(Cc1ccc(Cl)cc1)C(=O)CS2)c1ccccc1` (centres unmarked) [Example 125, 4-(4-chlorobenzyl)-3-oxo-N-(1-phenylethyl)-3,4-dihydro-2H-benzo[b-1,4]thiazine-6-carboxamide], for which the concentration for a half-maximal effect (EC50) is greater than 10 µM.

With `O=C(NCc1ccccc1)c1ccc2c(c1)N(Cc1c(F)cccc1Cl)C(=O)CS2` [Example 126, N-benzyl-4-(2-chloro-6-fluorobenzyl)-3-oxo-3,4-dihydro-2H-benzo[b-1,4]thiazine-6-carboxamide], the EC50 was 1 to 10 µM.

For `Cc1ccc(CN2CCC(CNC(=O)c3ccc4c(c3)N(Cc3c(F)cccc3Cl)C(=O)CS4)CC2)cc1` [Example 128, 4-(2-chloro-6-fluorobenzyl)-N-((1-(4-methylbenzyl)piperidin-4-yl)methyl)-3-oxo-3,4-dihydro-2H-benzo[b][1,4]thiazine-6-carboxamide], the EC50 is greater than 10 µM.

In the case of `O=C(NCCc1ccccc1)c1ccc2c(c1)N(Cc1c(F)cccc1Cl)C(=O)CS2` [Example 129, 4-(2-chloro-6-fluorobenzyl)-3-oxo-N-phenethyl-3,4-dihydro-2H-benzo[b-1,4]thiazine-6-carboxamide], the concentration for a half-maximal effect (EC50) was greater than 10 µM.

`O=C(NCC1CCCO1)c1ccc2c(c1)N(Cc1c(F)cccc1Cl)C(=O)CS2` (centres unmarked) [Example 130, 4-(2-chloro-6-fluorobenzyl)-3-oxo-N-((tetrahydrofuran-2-yl)methyl)-3,4-dihydro-2H-benzo[b-1,4]thiazine-6-carboxamide]: the half-maximal effective concentration (EC50) was greater than 10 µM.

In the case of `CC1(C)Sc2ccc(C(=O)NCc3ccco3)cc2N(Cc2ccccc2)C1=O` [Example 132, 4-Benzyl-N-(furan-2-ylmethyl)-2,2-dimethyl-3-oxo-3,4-dihydro-2H-benzo[b-1,4]thiazine-6-carboxamide], the EC50 was greater than 10 µM.

Turning to `CC1Sc2ccc(C(=O)NCc3ccco3)cc2N(Cc2ccccc2)C1=O` (centres unmarked) [Example 134, 4-benzyl-N-(furan-2-ylmethyl)-2-methyl-3-oxo-3,4-dihydro-2H-benzo[b-1,4]thiazine-6-carboxamide], the EC50 is 1 to 10 µM.

As for `CN(C)C1Sc2ccc(C(=O)NCc3ccco3)cc2N(Cc2ccccc2F)C1=O` (centres unmarked) [Example 135, 2-(dimethylamino)-4-(2-fluorobenzyl)-N-(furan-2-ylmethyl)-3-oxo-3,4-dihydro-2H-benzo[b-1,4]thiazine-6-carboxamide], the EC50 is greater than 10 µM.

For the molecule `CCOC1Sc2ccc(C(=O)NCc3ccco3)cc2N(Cc2ccccc2F)C1=O` (centres unmarked) [Example 137, 2-ethoxy-4-(2-fluorobenzyl)-N-(furan-2-ylmethyl)-3-oxo-3,4-dihydro-2H-benzo[b-1,4]thiazine-6-carboxamide], the half-maximal effective concentration (EC50) was greater than 10 µM.

Turning to `CC1(CC(=O)O)Sc2ccc(C(=O)NCc3ccco3)cc2N(Cc2ccccc2F)C1=O` (centres unmarked) [Example 139, 2-(4-(2-fluorobenzyl)-6-((furan-2-ylmethyl)carbamoyl)-2-methyl-3-oxo-3,4-dihydro-2H-benzo[b-1,4]thiazin-2-yl)acetic acid], the concentration for a half-maximal effect (EC50) is greater than 10 µM.

For `Cc1cccc(CNC(=O)c2ccc3c(c2)N(Cc2ccccc2Cl)C(=O)C(C)S3)c1` (centres unmarked) [Example 143, 4-(2-chlorobenzyl)-2-methyl-N-(3-methylbenzyl)-3-oxo-3,4-dihydro-2H-benzo[b-1,4]thiazine-6-carboxamide], the concentration giving a half-maximal response (EC50) lay in the range of 1 to 10 µM.

Take `CC1Sc2ccc(C(=O)NCc3c(F)cc(F)cc3F)cc2N(Cc2c(F)ccc(O)c2Cl)C1=O` (centres unmarked) [Example 155, 4-(2-chloro-6-fluoro-3-hydroxybenzyl)-2-methyl-3-oxo-N-(2,4,6-trifluorobenzyl)-3,4-dihydro-2H-benzo[b][1,4] thiazine-6-carboxamide]: the EC50 was less than 1 µM.

As for `N#CCC1Sc2ccc(C(=O)NCc3ccc(F)cc3F)cc2N(Cc2cc(F)cc(F)c2)C1=O` (centres unmarked) [Example 162, 2-(cyanomethyl)-N-(2,4-difluorobenzyl)-4-(3,5-difluorobenzyl)-3-oxo-3,4-dihydro-2H-benzo[b][1,4] thiazine-6-carboxamide], the EC50 is 1 to 10 µM.

Consider `Cc1cnc(CNC(=O)c2ccc3c(c2)N(Cc2cc(F)cc(F)c2)C(=O)C(C)S3)o1` (centres unmarked) [Example 163, 4-(3,5-difluorobenzyl)-2-methyl-N-((5-methyloxazol-2-yl)methyl)-3-oxo-3,4-dihydro-2H-benzo[b][1,4] thiazine-6-carboxamide], for which the concentration for a half-maximal effect (EC50) fell in the range of 1 to 10 µM.

With `CC1(O)Sc2ccc(C(=O)NCc3c(F)cc(F)cc3F)cc2N(Cc2c(F)cccc2Cl)C1=O` (centres unmarked) [Example 164, 4-(2-chloro-6-fluorobenzyl)-2-hydroxy-2-methyl-3-oxo-N-(2,4,6-trifluorobenzyl)-3,4-dihydro-2H-benzo[b][1,4] thiazine-6-carboxamide], the 50% effective concentration (EC50) lay within 1 to 10 µM.

On to `CC1(F)Sc2ccc(C(=O)NCc3c(F)cc(F)cc3F)cc2N(Cc2c(F)cccc2Cl)C1=O` (centres unmarked) [Example 165, 4-(2-chloro-6-fluorobenzyl)-2-fluoro-2-methyl-3-oxo-N-(2,4,6-trifluorobenzyl)-3,4-dihydro-2H-benzo[b][1,4] thiazine-6-carboxamide], for which the EC50 was greater than 10 µM.

Turning to `NCCC1Sc2ccc(C(=O)NCc3ccc(F)cc3F)cc2N(Cc2cc(F)cc(F)c2)C1=O` (centres unmarked) [Example 166, 2-(2-aminoethyl)-N-(2,4-difluorobenzyl)-4-(3,5-difluorobenzyl)-3-oxo-3,4-dihydro-2H-benzo[b] [1,4]thiazine-6-carboxamide], the EC50 was greater than 10 µM.

As for `Cc1noc(CNC(=O)c2ccc3c(c2)N(Cc2cc(F)cc(F)c2)C(=O)C(C)S3)n1` (centres unmarked) [Example 167, 4-(3,5-difluorobenzyl)-2-methyl-N-((3-methyl-1,2,4-oxadiazol-5-yl)methyl)-3-oxo-3,4-dihydro-2H-benzo[b][1,4] thiazine-6-carboxamide], the concentration for a half-maximal effect (EC50) was 1 to 10 µM.

Regarding `CC1Sc2ccc(C(=O)NCc3cnccn3)cc2N(Cc2cc(F)cc(F)c2)C1=O` (centres unmarked) [Example 168, 4-(3,5-difluorobenzyl)-2-methyl-3-oxo-N-(pyrazin-2-ylmethyl)-3,4-dihydro-2H-benzo [b][1,4]thiazine-6-carboxamide], the EC50 is greater than 10 µM.

As to `CC1Sc2ccc(C(=O)NCc3cnn(C)c3)cc2N(Cc2cc(F)cc(F)c2)C1=O` (centres unmarked) [Example 169, 4-(3,5-difluorobenzyl)-2-methyl-N-((1-methyl-1H-pyrazol-4-yl)methyl)-3-oxo-3,4-dihydro-2H-benzo[b][1,4] thiazine-6-carboxamide], the EC50 was greater than 10 µM.

On to `CS(=O)(=O)NCCC1Sc2ccc(C(=O)NCc3c(F)cc(F)cc3F)cc2N(Cc2cc(F)cc(F)c2)C1=O` (centres unmarked) [Example 170, 4-(3,5-difluorobenzyl)-2-(2-(methyl-sulfonamido)ethyl)-3-oxo-N-(2,4,6-trifluorobenzyl)-3,4-dihydro-2H-benzo[b] [1,4]thiazine-6-carboxamide], for which the EC50 was greater than 10 µM.

As to `COc1ccc(CCNC(=O)c2ccc3c(c2)N(Cc2ccccc2)C(=O)CS3)cc1OC` [Example 171, 4-benzyl-N-(3,4-dimethoxy-phenethyl)-3-oxo-3,4-dihydro-2H-benzo[b][1,4] thiazine-6-carboxamide], the EC50 was greater than 10 µM.

As for `CC1Sc2ccc(C(=O)NCc3ccn(C)n3)cc2N(Cc2c(F)cccc2Cl)C1=O` (centres unmarked) [Example 172, 4-(2-chloro-6-fluorobenzyl)-2-methyl-N-((1-methyl-1H-pyrazol-3-yl)methyl)-3-oxo-3,4-dihydro-2H-benzo[b] [1,4]thiazine-6-carboxamide], the EC50 was greater than 10 µM.
